Experimental data reported in patent US20240415858A1, “PROMOTING MYELINATION BY N-ACETYLGLUCOSAMINE AND MODULATION OF N-GLYCAN BRANCHING” (THE REGENTS OF THE UNIVERSITY OF CALIFORNIA, priority 2021, published 2024).

Tests used:
[1] = system: mouse neural stem cells (NSC) derived from the medial ganglionic eminence of E12.5 mouse embryos; assay: Oligodendrogenesis from mouse neural stem cells in vitro (flow cytometry, immunofluorescence); assay type: cell-based; settings: NSC in PDGF-AA differentiation media, 48 hrs
Description: Mice were bred and utilized as approved by the University of California, Irvine Institutional Animal Care and Use Committee. Dorsal forebrain cortical tissue was dissected from the medial ganglionic eminence (MGE) at embryonic day 12.5 (E12) of CD1 mice (Charles River) or Mgat5−/− C57BL/6 mice and their wildtype littermates and placed in dissection buffer comprising PBS, 0.6% glucose, and 50 U/mL Pen/Strep. Tissue from multiple embryos within the same litter were pooled, and a subsequent culture from a single litter was considered a biological repeat. The tissue was dissociated using 0.05% Trypsin-EDTA at 37° C. for 10 min, followed by treatment with soybean trypsin inhibitor (Life Technologies). Dissociated cells were re-suspended in proliferation medium comprising DMEM, 1× B27, 1× N2, 1 mM sodium pyruvate, 2 mM L-glutamine, 1 mM N-acetylcysteine, 20 ng/mL EGF (PeproTech), 10 ng/mL bFGF (PeproTech), and 2 μg/mL heparin and seeded at 150,000 cells/mL (non-tissue culture treated plastic plates) and grown as non-adherent spheres. Cell cultures were passaged approximately every 3 days using enzyme-free NeuroCult Chemical Dissociation Kit (Mouse) (StemCell Technologies). Cultures were passaged at least once prior to experimental use. For experiments, passaged cells were cultured in proliferation media (bFGF and EGF) or differentiation media (bFGF (10 ng/ml) and PDGF-AA (10 ng/ml); Life technologies) for 48 hours with or without the presence of GIcNAc (Ultimate Glucosamine, Wellesley Therapeutics) or kifunensine (GlycoSyn). Neurospheres were dispersed using the enzyme-free NeuroCult kit before being analyzed by flow cytometry using one or more of the following antibodies: anti-CD140a/PDGF-RA PE conjugate (1:200, A15785, Molecular Probes), anti-04 Alexa Fluor 488 conjugated (1:200, FAB1326G, RnD systems), Anti-GaIC Alexa Fluor 647 1:200, MAB342-AF647, Millipore), Anti-Olig2 (1:200, AB9610, Millipore) with anti-rabbit Alexa Fluor 488 (1:200, thermofisher).
For neural stem cell (NSC) immunofluorescence, whole neurospheres were seeded onto laminin-coated coverslips (Neuvitro) in proliferation medium. After 24 hours, proliferation media was removed and replaced with differentiation medium (same components as proliferation medium but excluding EGF, bFGF, and heparin) to induce differentiation. For analysis of mouse brains, brains were incubated in 30% sucrose for at least 72 hours, embedded in OCT (Tissue-tek), frozen for at least 48 hours at −80° C., and then cut at 40 microns on a cryostat. Multiple sections from −1 bregma to −2.5 bregma were then stained with antibodies for MBP (1:100; MAB386, Millipore), Olig2 (1:200; AB9610, Millipore), CC1 (1:100; OP90, Millipore), degraded MBP (1:200, AB5864, Millipore) and Amyloid Precursor Protein (APP, 1:200; clone 22C11). After overnight incubation with primary antibody, tissues were washed and incubated with secondary antibodies: goat anti-rat Alexa-fluor 488 (1:200, Thermofisher), goat anti-rabbit TxRd (1:200, Thermofisher). APP is a marker for neuro-axonal damage while co-staining for CC1 and Olig2 are markers of mature oligodendrocytes. In order to examine the amount of myelin, slices were incubated in Fluoromyelin (1:300; F34651, Thermofisher) for 45 minutes. Images were acquired on a Keyence fluorescence microscope. Mean fluorescence intensity of the medial corpus callosum was measured using ImageJ.
Oligodendrogenesis were examined in vitro using mouse neural stem cells (NSC) derived from the medial ganglionic eminence of E12.5 mouse embryos, where OPC's first appear. […] Consistent with increased PDGFRα surface expression, GIcNAc also promoted pre-oligodendrocyte differentiation as evidenced by augmented expression of Oligodendrocyte Transcription Factor (OLIG2) and increased numbers of 04 and GaIC positive cells (FIGS. 1A, 1B and 1C, FIGS. 5B and 5C). […]

[2] = Brain uptake of oral [U13C]GIcNAc, LC-MS/MS of perfused brains

**Q.** What does the source list for `O=C1N[C@@H]2[C@@H](O)[C@@H](O)[C@H](O)[C@@H](CO)N2C1=O` [kifunensine, reference compound]?
**A.** PDGFRα surface expression [1]: significantly reduced; number of O4 cells induced by PDGF-AA differentiation media [1]: significantly reduced

**Q.** Which “UDP-[U13C]-HexNAc in brain” value ([2]; suckling pups of treated lactating mothers) does the source give for “N-Acetyl-D-[UL-^13C6]glucosamine [[U^13C]GIcNAc]” here?
**A.** identified

**Q.** And the “UDP-[U13C]-HexNAc in brain” value ([2]; treated adult female mice, 1 mg/mL in drinking water, perfused brains)?
**A.** identified
